# Measurements as given in article PMC4005005 (ChemMedChem, 2014).
# Biological target: T1, G9a (Homo sapiens, UniProt Q96KQ7)
# T1 sequence (Q96KQ7 2-1210): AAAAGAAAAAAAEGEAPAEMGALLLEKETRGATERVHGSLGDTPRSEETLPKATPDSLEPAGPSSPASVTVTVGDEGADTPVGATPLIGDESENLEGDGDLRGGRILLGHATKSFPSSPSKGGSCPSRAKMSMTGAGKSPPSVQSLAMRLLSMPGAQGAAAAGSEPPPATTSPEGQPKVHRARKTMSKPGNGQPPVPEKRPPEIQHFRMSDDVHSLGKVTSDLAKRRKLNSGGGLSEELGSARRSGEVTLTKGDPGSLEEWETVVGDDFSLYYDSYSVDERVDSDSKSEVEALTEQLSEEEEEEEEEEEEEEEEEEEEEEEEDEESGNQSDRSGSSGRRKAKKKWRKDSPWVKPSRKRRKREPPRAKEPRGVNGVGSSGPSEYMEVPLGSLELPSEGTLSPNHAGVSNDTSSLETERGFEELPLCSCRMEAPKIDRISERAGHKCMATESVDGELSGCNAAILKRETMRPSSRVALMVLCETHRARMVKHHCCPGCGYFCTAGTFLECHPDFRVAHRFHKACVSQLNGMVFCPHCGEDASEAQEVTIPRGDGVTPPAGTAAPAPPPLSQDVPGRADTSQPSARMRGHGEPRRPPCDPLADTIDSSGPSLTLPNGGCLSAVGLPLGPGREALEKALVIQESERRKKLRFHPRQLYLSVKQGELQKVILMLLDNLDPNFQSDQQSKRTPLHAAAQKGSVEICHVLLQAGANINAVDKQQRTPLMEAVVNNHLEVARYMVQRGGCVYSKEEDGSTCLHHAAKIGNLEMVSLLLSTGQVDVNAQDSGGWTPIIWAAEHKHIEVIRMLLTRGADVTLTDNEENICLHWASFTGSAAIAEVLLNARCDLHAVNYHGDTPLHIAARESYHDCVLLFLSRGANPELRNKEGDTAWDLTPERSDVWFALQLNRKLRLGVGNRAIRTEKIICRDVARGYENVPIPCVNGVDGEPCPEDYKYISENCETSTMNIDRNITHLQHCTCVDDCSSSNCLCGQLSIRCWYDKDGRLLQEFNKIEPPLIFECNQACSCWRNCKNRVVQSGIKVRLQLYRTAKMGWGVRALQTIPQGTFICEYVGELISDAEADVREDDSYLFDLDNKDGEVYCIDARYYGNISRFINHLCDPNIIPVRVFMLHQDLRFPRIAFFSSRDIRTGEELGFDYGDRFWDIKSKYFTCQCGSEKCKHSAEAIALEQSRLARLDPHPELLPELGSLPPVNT
# Experiment: scintillation proximity assay of 3H-methyl transfer to histone peptide
# Type: biochemical
smiles,measurement,value
"COc1cc2c(NC3CCN(CCCc4cn(CCOCCOCCOCCNC(=O)CCCC[C@H]5SC[C@H]6NC(=O)N[C@H]65)nn4)CC3)nc(C3CCCCC3)nc2cc1OCCCN1CCCC1 [compound 10, UNC0965]",IC50,< 2.5 nM
